Experimental data taken from ChEMBL document CHEMBL3885881, “DrugMatrix”.

Species on record: Rattus norvegicus
Assay: DrugMatrix - Regimen: Daily Repeat
Format: toxicity, organism-based, Sprague-Dawley
Design: regimen Daily Repeat, gender Male, age 6-8 weeks
Details: in vivo, po, route oral GAVAGE, vehicle 100 % WATER; for ABSOLUTE BASOPHIL / ABSOLUTE EOSINOPHIL / ABSOLUTE LYMPHOCYTE / ABSOLUTE MONOCYTE / ABSOLUTE SEGMENTED NEUTROPHIL / BASOPHIL / EOSINOPHIL / ERYTHROCYTE COUNT / HEMATOCRIT / HEMOGLOBIN / LEUKOCYTE COUNT / LYMPHOCYTE / MEAN CORPUSCULAR HEMOGLOBIN / MEAN CORPUSCULAR HEMOGLOBIN CONCENTRATION / MEAN CORPUSCULAR VOLUME / MONOCYTE / NEUTROPHIL / NUCLEATED RED BLOOD CELLS / PLATELET COUNT: tissue Blood; for ALANINE AMINOTRANSFERASE / ALBUMIN / ALKALINE PHOSPHATASE / ASPARTATE AMINOTRANSFERASE / BLOOD UREA NITROGEN / CARBON DIOXIDE / CHLORIDE / CHOLESTEROL / CREATINE PHOSPHOKINASE / CREATININE / GLUCOSE / LACTATE DEHYDROGENASE / LIPASE / PHOSPHORUS / POTASSIUM / SODIUM / TOTAL BILIRUBIN / TOTAL PROTEIN / URIC ACID: tissue Plasma
[1] = 0 mg/kg, 72 h, dose level Control, time 3 day
[2] = 0 mg/kg, 120 h, dose level Control, time 5 day
[3] = 20 mg/kg, 72 h, dose level Low, time 3 day

Q: For CCCC(C)C1(CC)C(=O)NC(=O)NC1=O (centres undefined) [PENTOBARBITAL], which “ABSOLUTE BASOPHIL” value [1] is on record?
A: 0 CELLS/uL

Q: What about the “ABSOLUTE EOSINOPHIL” value [1] of the same compound?
A: 32.5 CELLS/uL

Q: And the “ABSOLUTE LYMPHOCYTE” value [1]?
A: 9305.83 CELLS/uL

Q: What about the “ABSOLUTE MONOCYTE” value [1] of the same compound?
A: 43.83 CELLS/uL

Q: And the “ABSOLUTE SEGMENTED NEUTROPHIL” value [1]?
A: 817.83 CELLS/uL

Q: What about the BASOPHIL [1] of the same compound?
A: 0%

Q: What about the EOSINOPHIL [1] of the same compound?
A: 0.33%

Q: What about the “ERYTHROCYTE COUNT” value [1] of the same compound?
A: 5.38 x10E6/uL

Q: And the HEMATOCRIT [1]?
A: 33.63%

Q: And the HEMOGLOBIN [1]?
A: 13.17 G/DL

Q: And the “LEUKOCYTE COUNT” value [1]?
A: 10.2 x10E3/uL

Q: And the LYMPHOCYTE [1]?
A: 91.17%

Q: What about the “MEAN CORPUSCULAR HEMOGLOBIN” value [1] of the same compound?
A: 24.5 pg

Q: What about the “MEAN CORPUSCULAR HEMOGLOBIN CONCENTRATION” value [1] of the same compound?
A: 39.13 G/DL

Q: And the “MEAN CORPUSCULAR VOLUME” value [1]?
A: 62.53 fL

Q: What about the MONOCYTE [1] of the same compound?
A: 0.5%

Q: What about the NEUTROPHIL [1] of the same compound?
A: 8%

Q: And the “NUCLEATED RED BLOOD CELLS” value [1]?
A: 0.17 /100WBC

Q: And the “PLATELET COUNT” value [1]?
A: 858 x10E3/uL

Q: What about the “ALANINE AMINOTRANSFERASE” value [1] of the same compound?
A: 55.67 u/L

Q: And the ALBUMIN [1]?
A: 4.07 G/DL

Q: And the “ALKALINE PHOSPHATASE” value [1]?
A: 337 u/L

Q: What about the “ASPARTATE AMINOTRANSFERASE” value [1] of the same compound?
A: 84 u/L

Q: And the “BLOOD UREA NITROGEN” value [1]?
A: 13.17 mg/dL

Q: And the “CARBON DIOXIDE” value [1]?
A: 34.17 mmol/L

Q: And the CHLORIDE [1]?
A: 99.33 MEQ/L

Q: What about the CHOLESTEROL [1] of the same compound?
A: 78.83 mg/dL

Q: What about the “CREATINE PHOSPHOKINASE” value [1] of the same compound?
A: 576.83 u/L

Q: And the CREATININE [1]?
A: 0.17 mg/dL

Q: What about the GLUCOSE [1] of the same compound?
A: 152.67 mg/dL

Q: And the “LACTATE DEHYDROGENASE” value [1]?
A: 147.83 u/L

Q: And the LIPASE [1]?
A: 9.5 u/L

Q: What about the PHOSPHORUS [1] of the same compound?
A: 10.78 mg/dL

Q: What about the POTASSIUM [1] of the same compound?
A: 6.34 MEQ/L

Q: What about the SODIUM [1] of the same compound?
A: 144.12 MEQ/L

Q: What about the “TOTAL BILIRUBIN” value [1] of the same compound?
A: 0.18 mg/dL

Q: What about the “TOTAL PROTEIN” value [1] of the same compound?
A: 6.08 G/DL

Q: And the “URIC ACID” value [1]?
A: 0.65 mg/dL

Q: And the “ABSOLUTE BASOPHIL” value [2]?
A: 0 CELLS/uL

Q: And the “ABSOLUTE EOSINOPHIL” value [2]?
A: 31.17 CELLS/uL

Q: And the “ABSOLUTE LYMPHOCYTE” value [2]?
A: 7918.33 CELLS/uL

Q: And the “ABSOLUTE MONOCYTE” value [2]?
A: 58.33 CELLS/uL

Q: What about the “ABSOLUTE SEGMENTED NEUTROPHIL” value [2] of the same compound?
A: 725.5 CELLS/uL

Q: What about the BASOPHIL [2] of the same compound?
A: 0%

Q: What about the EOSINOPHIL [2] of the same compound?
A: 0.33%

Q: What about the “ERYTHROCYTE COUNT” value [2] of the same compound?
A: 5.32 x10E6/uL

Q: And the HEMATOCRIT [2]?
A: 33.53%

Q: What about the HEMOGLOBIN [2] of the same compound?
A: 13.17 G/DL

Q: And the “LEUKOCYTE COUNT” value [2]?
A: 8.73 x10E3/uL

Q: What about the LYMPHOCYTE [2] of the same compound?
A: 90.33%

Q: What about the “MEAN CORPUSCULAR HEMOGLOBIN” value [2] of the same compound?
A: 24.82 pg

Q: What about the “MEAN CORPUSCULAR HEMOGLOBIN CONCENTRATION” value [2] of the same compound?
A: 39.33 G/DL

Q: And the “MEAN CORPUSCULAR VOLUME” value [2]?
A: 63.12 fL

Q: What about the MONOCYTE [2] of the same compound?
A: 0.67%

Q: And the NEUTROPHIL [2]?
A: 8.67%

Q: And the “NUCLEATED RED BLOOD CELLS” value [2]?
A: 0 /100WBC

Q: What about the “PLATELET COUNT” value [2] of the same compound?
A: 1144.83 x10E3/uL

Q: And the “ALANINE AMINOTRANSFERASE” value [2]?
A: 60.5 u/L

Q: And the ALBUMIN [2]?
A: 3.97 G/DL

Q: What about the “ALKALINE PHOSPHATASE” value [2] of the same compound?
A: 343.17 u/L

Q: What about the “ASPARTATE AMINOTRANSFERASE” value [2] of the same compound?
A: 80.83 u/L

Q: And the “BLOOD UREA NITROGEN” value [2]?
A: 15 mg/dL

Q: And the “CARBON DIOXIDE” value [2]?
A: 31 mmol/L

Q: And the CHLORIDE [2]?
A: 99.75 MEQ/L

Q: And the CHOLESTEROL [2]?
A: 71.5 mg/dL

Q: And the “CREATINE PHOSPHOKINASE” value [2]?
A: 237.17 u/L

Q: And the CREATININE [2]?
A: 0.17 mg/dL

Q: What about the GLUCOSE [2] of the same compound?
A: 137 mg/dL

Q: And the “LACTATE DEHYDROGENASE” value [2]?
A: 146.17 u/L

Q: And the LIPASE [2]?
A: 11.5 u/L

Q: What about the PHOSPHORUS [2] of the same compound?
A: 10.13 mg/dL

Q: What about the POTASSIUM [2] of the same compound?
A: 6 MEQ/L

Q: What about the SODIUM [2] of the same compound?
A: 145 MEQ/L

Q: What about the “TOTAL BILIRUBIN” value [2] of the same compound?
A: 0.13 mg/dL

Q: What about the “TOTAL PROTEIN” value [2] of the same compound?
A: 5.82 G/DL

Q: And the “URIC ACID” value [2]?
A: 0.62 mg/dL

Q: And the “ABSOLUTE BASOPHIL” value [3]?
A: 0 CELLS/uL

Q: What about the “ABSOLUTE EOSINOPHIL” value [3] of the same compound?
A: 0 CELLS/uL

Q: And the “ABSOLUTE LYMPHOCYTE” value [3]?
A: 9302.33 CELLS/uL

Q: And the “ABSOLUTE MONOCYTE” value [3]?
A: 108 CELLS/uL

Q: And the “ABSOLUTE SEGMENTED NEUTROPHIL” value [3]?
A: 989.67 CELLS/uL

Q: And the BASOPHIL [3]?
A: 0%

Q: What about the EOSINOPHIL [3] of the same compound?
A: 0%

Q: What about the “ERYTHROCYTE COUNT” value [3] of the same compound?
A: 5.3 x10E6/uL

Q: And the HEMATOCRIT [3]?
A: 32.83%

Q: And the HEMOGLOBIN [3]?
A: 12.6 G/DL

Q: What about the “LEUKOCYTE COUNT” value [3] of the same compound?
A: 10.4 x10E3/uL

Q: And the LYMPHOCYTE [3]?
A: 88.33%

Q: And the “MEAN CORPUSCULAR HEMOGLOBIN” value [3]?
A: 23.77 pg

Q: What about the “MEAN CORPUSCULAR HEMOGLOBIN CONCENTRATION” value [3] of the same compound?
A: 38.37 G/DL

Q: What about the “MEAN CORPUSCULAR VOLUME” value [3] of the same compound?
A: 61.97 fL

Q: And the MONOCYTE [3]?
A: 1.33%

Q: And the NEUTROPHIL [3]?
A: 10.33%

Q: What about the “NUCLEATED RED BLOOD CELLS” value [3] of the same compound?
A: 0 /100WBC

Q: What about the “PLATELET COUNT” value [3] of the same compound?
A: 1066.67 x10E3/uL

Q: And the “ALANINE AMINOTRANSFERASE” value [3]?
A: 57.67 u/L

Q: What about the ALBUMIN [3] of the same compound?
A: 3.9 G/DL

Q: And the “ALKALINE PHOSPHATASE” value [3]?
A: 334.33 u/L

Q: And the “ASPARTATE AMINOTRANSFERASE” value [3]?
A: 90.67 u/L

Q: What about the “BLOOD UREA NITROGEN” value [3] of the same compound?
A: 13.67 mg/dL

Q: And the “CARBON DIOXIDE” value [3]?
A: 35.33 mmol/L

Q: And the CHLORIDE [3]?
A: 100 MEQ/L

Q: What about the CHOLESTEROL [3] of the same compound?
A: 80.67 mg/dL

Q: And the “CREATINE PHOSPHOKINASE” value [3]?
A: 384.67 u/L

Q: What about the CREATININE [3] of the same compound?
A: 0.14 mg/dL

Q: What about the GLUCOSE [3] of the same compound?
A: 140 mg/dL

Q: And the “LACTATE DEHYDROGENASE” value [3]?
A: 137 u/L

Q: And the LIPASE [3]?
A: 9 u/L

Q: And the PHOSPHORUS [3]?
A: 11.23 mg/dL

Q: What about the POTASSIUM [3] of the same compound?
A: 5.89 MEQ/L

Q: What about the SODIUM [3] of the same compound?
A: 147.3 MEQ/L

Q: And the “TOTAL BILIRUBIN” value [3]?
A: 0.13 mg/dL

Q: And the “TOTAL PROTEIN” value [3]?
A: 5.67 G/DL

Q: And the “URIC ACID” value [3]?
A: 0.7 mg/dL
